Experimental data: article PMC5359596, “A new electro-optical approach for conductance measurement: an assay for the study of drugs acting on ligand-gated ion channels” (Scientific Reports, 2017)

Experiments:
Assay type in all cases: cell-based
P2RX7 receptor [1] = target: T1, P2RX7 receptor (Homo sapiens, UniProt Q99572); assay: ionChannelΩ conductance assay, HEK-293 expressing P2RX7; details: HEK-293_P2RX7, agonist
T1 construct: host or cells: HEK-293
T1 sequence (Q99572 1-595): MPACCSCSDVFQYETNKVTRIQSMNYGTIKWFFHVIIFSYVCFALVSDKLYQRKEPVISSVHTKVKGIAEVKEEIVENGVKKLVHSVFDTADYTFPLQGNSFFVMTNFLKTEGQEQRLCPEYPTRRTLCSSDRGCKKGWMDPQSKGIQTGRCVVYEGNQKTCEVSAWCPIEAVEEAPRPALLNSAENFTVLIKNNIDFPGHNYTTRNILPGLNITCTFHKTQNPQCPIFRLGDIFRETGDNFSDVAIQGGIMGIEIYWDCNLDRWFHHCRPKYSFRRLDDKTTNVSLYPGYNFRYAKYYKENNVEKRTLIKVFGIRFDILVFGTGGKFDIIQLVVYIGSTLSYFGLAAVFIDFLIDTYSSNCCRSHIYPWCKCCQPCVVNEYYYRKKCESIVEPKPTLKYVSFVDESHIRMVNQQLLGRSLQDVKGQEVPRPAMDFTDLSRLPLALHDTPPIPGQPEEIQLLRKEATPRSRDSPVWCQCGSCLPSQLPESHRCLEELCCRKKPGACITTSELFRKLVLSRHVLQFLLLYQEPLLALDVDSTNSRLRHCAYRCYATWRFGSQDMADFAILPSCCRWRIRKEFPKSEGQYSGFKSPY

P2RX7 receptor [2] = target: T1, P2RX7 receptor; assay: FLIPR (GCaMP2.1 calcium biosensor), HEK-293 expressing P2RX7; details: HEK-293_P2RX7, agonist
Method: (§1) Intracellular calcium concentration was measured by: GCaMP2.1 calcium biosensor for P2RX7; Screen Quest™ Fluo-8 No. Wash Calcium Assay Kit (AAT Bioquest) for TRPV1; and Calcium Assay Kit (Molecular Devices) for TRPM2.
For the P2RX7 assay, cells were preincubated in Low Calcium, Magnesium free Tyrode’s Buffer.
Reference blockers were injected at FLIPRTetra instrument and fluorescence signal was recorded. After 10 minutes a second injection of reference activators was performed and fluorescence was measured.

hTRPV1 = target: T2, hTRPV1 (Homo sapiens, UniProt Q8NER1); assay: ionChannelΩ electro-optical conductance assay, CHO-K1 expressing hTRPV1; details: scatter plot linear regression, highest capsaicin concentrations
T2 construct: host or cells: CHO-K1
T2 sequence (Q8NER1 whole entry): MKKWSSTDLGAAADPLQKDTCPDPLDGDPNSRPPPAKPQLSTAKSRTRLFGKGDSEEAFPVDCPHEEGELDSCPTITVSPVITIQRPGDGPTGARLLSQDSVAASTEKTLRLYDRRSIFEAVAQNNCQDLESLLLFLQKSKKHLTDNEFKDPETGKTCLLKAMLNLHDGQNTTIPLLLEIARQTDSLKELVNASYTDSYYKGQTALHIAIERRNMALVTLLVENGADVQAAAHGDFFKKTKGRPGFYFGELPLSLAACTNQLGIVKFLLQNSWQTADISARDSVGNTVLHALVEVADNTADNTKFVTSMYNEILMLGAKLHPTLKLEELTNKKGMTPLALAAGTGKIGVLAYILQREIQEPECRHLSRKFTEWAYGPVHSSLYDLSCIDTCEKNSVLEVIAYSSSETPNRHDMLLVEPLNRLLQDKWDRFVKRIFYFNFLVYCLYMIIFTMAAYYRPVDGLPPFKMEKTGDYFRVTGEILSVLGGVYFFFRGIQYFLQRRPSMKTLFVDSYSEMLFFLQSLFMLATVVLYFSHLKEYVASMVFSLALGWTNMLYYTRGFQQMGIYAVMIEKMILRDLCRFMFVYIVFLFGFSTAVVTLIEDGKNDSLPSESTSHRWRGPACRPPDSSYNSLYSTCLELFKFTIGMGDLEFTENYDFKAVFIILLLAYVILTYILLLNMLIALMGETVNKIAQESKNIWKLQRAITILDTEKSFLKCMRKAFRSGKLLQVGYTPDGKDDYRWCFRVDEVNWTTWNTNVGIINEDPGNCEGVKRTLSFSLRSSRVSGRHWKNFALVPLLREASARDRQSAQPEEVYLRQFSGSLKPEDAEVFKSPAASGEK
Method: (§2) Test current pulses (mono or biphasic) were administered to cells by parallel electrodes placed on the plane of the cells. Pulse length was several times the membrane time constant of the investigated cells in order to acquire images at a time of the pulse when plateau was fully established. Current intensity was set high enough to generate significant variations in the fluorescence signal, still avoiding membrane electroporation[35]. More specifically, a plot of the ΔFc/FRc values obtained at increasing current values was obtained: only current intensities giving correlative values lying on the linear part of the plot were used. […]
(§3) Images are processed off-line by a MATLAB-based Image Analysis program, developed in the laboratory, which offers the possibility to employ different filters, parameters and types of analysis in order to extract the data necessary to draw CRCs. […] More specifically, pixels were selected as part of the shape mask when the following requirements were met: to be part of the cell (recognition of object boundary from fluorescence signals); to be confined to the plasma membrane region (calculation of a ring of depth boundaries). […] In either case, mean values ± standard error (calculated from values obtained in the different sampling areas of the same well) were obtained at the various concentration of the drug and fitted by a nonlinear regression curve. […]

TRPM2 [3] = target: T3, TRPM2 (Homo sapiens, UniProt O94759); assay: ionChannelΩ conductance assay, HEK-293 expressing TRPM2; details: HEK-293_TRPM2
T3 construct: host or cells: HEK-293
T3 sequence (O94759 whole entry): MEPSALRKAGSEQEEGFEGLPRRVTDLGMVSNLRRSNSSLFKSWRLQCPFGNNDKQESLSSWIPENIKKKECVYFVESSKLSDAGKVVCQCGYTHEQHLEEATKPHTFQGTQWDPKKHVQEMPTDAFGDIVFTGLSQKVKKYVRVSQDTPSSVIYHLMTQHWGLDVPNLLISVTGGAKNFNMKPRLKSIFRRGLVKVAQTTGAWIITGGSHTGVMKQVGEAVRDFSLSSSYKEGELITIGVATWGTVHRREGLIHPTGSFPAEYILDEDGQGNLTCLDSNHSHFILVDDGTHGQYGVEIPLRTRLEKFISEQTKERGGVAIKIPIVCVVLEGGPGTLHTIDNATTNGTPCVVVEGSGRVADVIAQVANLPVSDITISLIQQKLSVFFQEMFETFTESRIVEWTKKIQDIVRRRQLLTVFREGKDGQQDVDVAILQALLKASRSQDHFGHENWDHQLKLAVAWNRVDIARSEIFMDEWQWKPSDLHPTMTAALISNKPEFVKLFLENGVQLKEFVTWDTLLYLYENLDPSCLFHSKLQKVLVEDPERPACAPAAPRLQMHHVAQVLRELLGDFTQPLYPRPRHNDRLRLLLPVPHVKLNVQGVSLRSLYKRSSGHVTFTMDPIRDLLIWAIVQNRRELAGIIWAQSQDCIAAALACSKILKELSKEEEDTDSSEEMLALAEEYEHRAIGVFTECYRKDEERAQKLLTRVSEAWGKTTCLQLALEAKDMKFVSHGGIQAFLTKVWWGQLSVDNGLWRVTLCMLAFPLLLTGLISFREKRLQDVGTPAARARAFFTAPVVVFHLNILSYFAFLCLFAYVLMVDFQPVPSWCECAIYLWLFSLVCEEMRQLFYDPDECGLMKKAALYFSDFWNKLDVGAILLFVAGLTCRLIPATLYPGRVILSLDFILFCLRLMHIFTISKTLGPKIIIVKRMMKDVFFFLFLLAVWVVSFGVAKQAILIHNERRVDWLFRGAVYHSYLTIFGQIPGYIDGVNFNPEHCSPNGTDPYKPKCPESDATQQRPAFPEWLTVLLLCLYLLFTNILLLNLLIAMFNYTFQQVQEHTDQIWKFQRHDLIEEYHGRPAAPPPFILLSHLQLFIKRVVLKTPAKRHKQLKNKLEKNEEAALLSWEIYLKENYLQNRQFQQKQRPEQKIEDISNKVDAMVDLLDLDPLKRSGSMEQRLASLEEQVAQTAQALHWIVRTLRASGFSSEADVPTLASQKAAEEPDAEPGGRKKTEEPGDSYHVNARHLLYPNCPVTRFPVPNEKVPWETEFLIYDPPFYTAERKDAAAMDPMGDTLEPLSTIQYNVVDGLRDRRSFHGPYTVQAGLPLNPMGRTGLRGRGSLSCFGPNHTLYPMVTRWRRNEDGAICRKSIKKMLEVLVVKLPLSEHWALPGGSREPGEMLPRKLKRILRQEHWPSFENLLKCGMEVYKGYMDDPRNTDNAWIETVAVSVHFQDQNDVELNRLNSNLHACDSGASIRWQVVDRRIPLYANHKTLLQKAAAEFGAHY
Method: as §2, §3

TRPM2 [4] = target: T3, TRPM2; assay: FLIPR (Calcium Assay Kit), HEK-293 expressing TRPM2; details: HEK-293_TRPM2
Method: as §1

HeLa cells = assay: Optical detection of plasma membrane resistance changes in HeLa cells (conventional microscope); details: increasing concentrations
From the text: Resistance (R) determines the magnitude of the passive changes observed in membrane potential in response to a constant current: the lower the resistance, the lower the membrane potential variation (Supplementary Figure 1). Accordingly, we investigated the possibility of using local membrane potential variations imposed by a test square current pulse to measure changes in membrane resistance. The variation of VSD fluorescence values during the current pulse, were quantified as ΔF, i.e. the difference between the plateau value reached during the electric stimulus (FS) and the pre-stimulus, resting, value (FR) (Supplementary Figure 1). ΔF values were further normalized to their respective resting values (ΔF/FR) to take into account even minimal variations of VSD fluorescence due to dye bleaching. […]
Images were processed off-line by an image analysis program developed in MATLAB (The MathWorks). […] Fluorescence intensity values were calculated as the mean of the values obtained in the selected ROIs within the 3 stimuli series administered in the different conditions (before and during the plateau phase of the pulse, in the absence and in the presence of a test compound). […]

Question: “2′(3′)-O-(4-Benzoylbenzoyl)adenosine 5′-triphosphate triethylammonium salt [BzATP]” was tested. Which EC50 (P2RX7 receptor [1]) did it give?
Answer: The EC50 was 3.4 µM.

Question: And the EC50 (P2RX7 receptor [2])?
Answer: Its EC50 is 6.35 µM.

Question: For `COc1cc(CNC(=O)CCCC/C=C/C(C)C)ccc1O` [capsaicin], which “unitary slope resistance, final value at increasing concentrations” value (hTRPV1) is on record?
Answer: The value was ~20 % of control.

Question: `COC1=C(N)C(=O)c2nc(-c3nc(C(=O)O)c(C)c(-c4ccc(OC)c(OC)c4O)c3N)ccc2C1=O` [streptonigrin] was tested. Which EC50 (TRPM2 [3]) did it give?
Answer: The EC50 was 14.1 µM.

Question: And the EC50 (TRPM2 [4])?
Answer: Its EC50 is 4.3 µM.

Question: With “Streptolysin-O: bacterial protein able to insert into the eukaryotic plasma membrane and form non-selective ion pores” as the compound, how does the “VSD responses to electric square pulses (membrane resistance)” value (HeLa cells) read?
Answer: The value was “progressively reduced in amplitude”.
